Laboratory results published in PubChem BioAssay AID328 (DTP/NCI, 2004).
“And” between values parts separate entries of the source, which are not always exact repeats. Equal values may be shown once. Toxic doses and inconclusive results are not listed. Residues, ends and D or L forms follow the SMILES beside them. *: point of attachment. Cbz = O=C(OCc1ccccc1)*; Bn = c1ccc(C*)cc1; βAla = NCCC(=O)O

Test system: BDF1 mice, P388 leukemia ip, median survival T/C
Test: NCI In Vivo Anticancer Drug Screen. Data for tumor model P388 Leukemia (intraperitoneal) in B6D2F1 (BDF1) mice
Details: endpoint: median survival time, higher = longer survival
Summary of the method: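 Vehicle-dosed animals serve as the reference; survival of compound-dosed, tumour-implanted mice is divided by it.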

[1] = dose: 100.0 mg/kg/injection, schedule: Q01DX009 (ip), vehicle: Klucel (hydroxypropylcellulose) (HPC)
[2] = dose: 100.0 mg/kg/injection, schedule: Q04DX003 (ip), vehicle: Klucel (hydroxypropylcellulose) (HPC)
[3] = dose: 200.0 mg/kg/injection, schedule: Q04DX003 (ip), vehicle: Klucel (hydroxypropylcellulose) (HPC)
[4] = dose: 400.0 mg/kg/injection, schedule: Q04DX003 (ip), vehicle: Klucel (hydroxypropylcellulose) (HPC)
[5] = dose: 50.0 mg/kg/injection, schedule: Q04DX003 (ip), vehicle: Klucel (hydroxypropylcellulose) (HPC)
[6] = dose: 50.0 mg/kg/injection, schedule: Q01DX009 (ip), vehicle: saline with Tween-80
[7] = dose: 100.0 mg/kg/injection, schedule: Q01DX009 (ip), vehicle: saline with Tween-80
[8] = dose: 200.0 mg/kg/injection, schedule: Q01DX009 (ip), vehicle: saline with Tween-80
[9] = dose: 50.0 mg/kg/injection, schedule: Q01DX009 (ip), vehicle: saline
[10] = dose: 100.0 mg/kg/injection, schedule: Q04DX003 (ip), vehicle: saline
[11] = dose: 200.0 mg/kg/injection, schedule: Q04DX003 (ip), vehicle: saline
[12] = dose: 25.0 mg/kg/injection, schedule: Q04DX003 (ip), vehicle: Klucel (hydroxypropylcellulose) (HPC)
[13] = dose: 100.0 mg/kg/injection, schedule: Q04DX003 (ip), vehicle: saline with Tween-80
[14] = dose: 200.0 mg/kg/injection, schedule: Q04DX003 (ip), vehicle: saline with Tween-80
[15] = dose: 400.0 mg/kg/injection, schedule: Q04DX003 (ip), vehicle: saline with Tween-80
[16] = dose: 400.0 mg/kg/injection, schedule: Q04DX003 (ip), vehicle: saline
[17] = dose: 25.0 mg/kg/injection, schedule: Q01DX009 (ip), vehicle: saline
[18] = dose: 100.0 mg/kg/injection, schedule: Q01DX009 (ip), vehicle: saline
[19] = dose: 25.0 mg/kg/injection, schedule: Q01DX009 (ip), vehicle: saline with Tween-80

## O=C1c2ccccc2S(=O)(=O)N1CCN1C(=O)c2ccccc2S1(=O)=O
[1]
  T/C: 100 % of control
[2]
  T/C: 95 % of control
dose: 200.0 mg/kg/injection, schedule: Q01DX009 (ip), vehicle: Klucel (hydroxypropylcellulose) (HPC)
  T/C: 100 % of control
[3]
  T/C: 100 % of control
dose: 400.0 mg/kg/injection, schedule: Q01DX009 (ip), vehicle: Klucel (hydroxypropylcellulose) (HPC)
  T/C: 90 % of control
[4]
  T/C: 100 % of control

## O=C(Nc1ccc2ncccc2c1)Nc1ccc2ncccc2c1
dose: 50.0 mg/kg/injection, schedule: Q01DX009 (ip), vehicle: Klucel (hydroxypropylcellulose) (HPC)
  T/C: 87 % of control
[5]
  T/C: 91 % of control
[1]
  T/C: 95 % of control
[2]
  T/C: 95 % of control
[3]
  T/C: 91 % of control

## CS(=O)(=O)n1c(CBr)nc2ccccc21
dose: 25.0 mg/kg/injection, schedule: Q04DX003 (ip), vehicle: saline sonified
  T/C: 109 % of control
dose: 50.0 mg/kg/injection, schedule: Q04DX003 (ip), vehicle: saline sonified
  T/C: 118 % of control
dose: 100.0 mg/kg/injection, schedule: Q04DX003 (ip), vehicle: saline sonified
  T/C: 122 % of control

## CCNc1ncc([N+](=O)[O-])c(Nc2ccccc2)n1
[6]
  T/C: 103 % of control
[7]
  T/C: 103 % of control
[8]
  T/C: 88 % of control

## CCOC(=O)C(C(=O)OCC)=C(C)C
[2]
  T/C: 100 % of control
[3]
  T/C: 88 % of control
dose: 400.0 mg/kg/injection, schedule: Q01DX009 (ip), vehicle: saline with Tween-80
  T/C: 150 % of control
[4]
  T/C: 103 % of control

## Cc1ccc(NC(=O)NCCCOc2ccc(N3C(N)=NC(N)=NC3(C)C)cc2Cl)cc1S(=O)(=O)F
dose: 45.0 mg/kg/injection, schedule: Q04DX003 (ip), vehicle: saline
  T/C: 100 % of control
[9]
  T/C: 155 % of control
dose: 65.0 mg/kg/injection, schedule: Q04DX003 (ip), vehicle: saline
  T/C: 109 % of control
dose: 75.0 mg/kg/injection, schedule: Q01DX009 (ip), vehicle: saline
  T/C: 150 % of control and 155 % of control
[10]
  T/C: 122 % of control
dose: 110.0 mg/kg/injection, schedule: Q01DX009 (ip), vehicle: saline
  T/C: 160 % of control
dose: 150.0 mg/kg/injection, schedule: Q01DX009 (ip), vehicle: saline
  T/C: 90 % of control
[11]
  T/C: 186 % of control

## O=C(c1ccc(Cl)cc1)c1cccc[n+]1Cc1ccccc1
dose: 0.37 mg/kg/injection, schedule: Q01DX009 (ip), vehicle: Klucel (hydroxypropylcellulose) (HPC)
  T/C: 100 % of control
dose: 18.75 mg/kg/injection, schedule: Q01DX009 (ip), vehicle: Klucel (hydroxypropylcellulose) (HPC)
  T/C: 104 % of control
dose: 28.12 mg/kg/injection, schedule: Q04DX003 (ip), vehicle: Klucel (hydroxypropylcellulose) (HPC)
  T/C: 100 % of control
dose: 37.5 mg/kg/injection, schedule: Q01DX009 (ip), vehicle: Klucel (hydroxypropylcellulose) (HPC)
  T/C: 109 % of control
dose: 56.25 mg/kg/injection, schedule: Q04DX003 (ip), vehicle: Klucel (hydroxypropylcellulose) (HPC)
  T/C: 95 % of control
dose: 112.5 mg/kg/injection, schedule: Q04DX003 (ip), vehicle: Klucel (hydroxypropylcellulose) (HPC)
  T/C: 100 % of control

## CC(C)(C)NCC(CN(CC(CNC(C)(C)C)C(=O)c1ccccc1)C(C)(C)C)C(=O)c1ccccc1 (stereo not given)
dose: 12.5 mg/kg/injection, schedule: Q04DX003 (ip), vehicle: Klucel (hydroxypropylcellulose) (HPC)
  T/C: 104 % of control
[12]
  T/C: 104 % of control
[5]
  T/C: 112 % of control

## CCOC(=O)/C(Cc1cnc2ccccc2n1)=N\O
[13]
  T/C: 95 % of control
[14]
  T/C: 100 % of control
[15]
  T/C: 100 % of control

## c1nc(SC2CCCC2)c2[nH]cnc2n1
[7]
  T/C: 100 % of control
[8]
  T/C: 116 % of control

## COC(=O)C1OC(C)(C)OC1C(=O)OC (stereo not given)
dose: 100.0 mg/kg/injection, schedule: Q04DX002 (ip), vehicle: saline with Tween-80
  T/C: 90 % of control
dose: 200.0 mg/kg/injection, schedule: Q04DX002 (ip), vehicle: saline with Tween-80
  T/C: 97 % of control
dose: 400.0 mg/kg/injection, schedule: Q04DX002 (ip), vehicle: saline with Tween-80
  T/C: 90 % of control

## O=c1oc(-c2ccccc2)nc2c(Cl)ccc(Cl)c12
[10]
  T/C: 109 % of control
[11]
  T/C: 104 % of control
[16]
  T/C: 104 % of control

## Cc1cc(/C=C/c2cc[n+](C)c3ccccc23)c(O)c2ncccc12
dose: 3.0 mg/kg/injection, schedule: Q01DX009 (ip), vehicle: saline
  T/C: 163 % of control
dose: 6.0 mg/kg/injection, schedule: Q01DX009 (ip), vehicle: Klucel (hydroxypropylcellulose) (HPC)
  T/C: 155 % of control
dose: 6.0 mg/kg/injection, schedule: Q01DX009 (ip), vehicle: saline
  T/C: 159 % of control
dose: 12.0 mg/kg/injection, schedule: Q01DX009 (ip), vehicle: Klucel (hydroxypropylcellulose) (HPC)
  T/C: 165 % of control
dose: 12.0 mg/kg/injection, schedule: Q01DX009 (ip), vehicle: saline
  T/C: 159 % of control
dose: 24.0 mg/kg/injection, schedule: Q01DX009 (ip), vehicle: saline
  T/C: 168 % of control

## CSC(c1ccccc1)=[N+]1CCOCC1
dose: 50.0 mg/kg/injection, schedule: Q01DX009 (ip), vehicle: other
  T/C: 100 % of control
[5]
  T/C: 100 % of control
dose: 100.0 mg/kg/injection, schedule: Q01DX009 (ip), vehicle: other
  T/C: 118 % of control
[2]
  T/C: 100 % of control
dose: 200.0 mg/kg/injection, schedule: Q01DX009 (ip), vehicle: other
  T/C: 113 % of control
[3]
  T/C: 90 % of control

## CCOC(=O)C1C(=O)C(C(=O)Nc2ccccc2)C(=O)C(C(=O)OCC)C1c1ccc(O)cc1 (stereo not given)
[13]
  T/C: 110 % of control and 90 % of control
[14]
  T/C: 115 % of control
[15]
  T/C: 110 % of control and 100 % of control

## COc1ccc(OC)c2c1C(=O)CC2C (stereo not given)
[17]
  T/C: 105 % of control
[9]
  T/C: 91 % of control
[18]
  T/C: 98 % of control

## CCCOC(=O)C1(N)CCCC1
[7]
  T/C: 100 % of control
[8]
  T/C: 90 % of control

## C=CCc1ccccc1CNC(C)(C)CO
[6]
  T/C: 103 % of control
[7]
  T/C: 103 % of control

## CN(C)CCCNC(=O)Nc1ccccc1
[2]
  T/C: 95 % of control
[3]
  T/C: 104 % of control

## CC(=O)Nc1nc(C)c(CCC#N)c(=O)[nH]1
[10]
  T/C: 86 % of control
[11]
  T/C: 90 % of control
[16]
  T/C: 86 % of control

## [Se]c1nccn2cnnc12
dose: 6.25 mg/kg/injection, schedule: Q01DX001 (ip), vehicle: saline with Tween-80
  T/C: 122 % of control
dose: 12.5 mg/kg/injection, schedule: Q01DX001 (ip), vehicle: saline with Tween-80
  T/C: 105 % of control
dose: 25.0 mg/kg/injection, schedule: Q01DX001 (ip), vehicle: saline with Tween-80
  T/C: 103 % of control

## CC(=O)O.CC(=O)O.[Co+2].[NH-]C(CCC(N)=O)C(=O)O.[NH-]C(CCC(N)=O)C(=O)O (stereo not given)
dose: 12.5 mg/kg/injection, schedule: Q01DX009 (ip), vehicle: saline with Tween-80
  T/C: 87 % of control
[19]
  T/C: 93 % of control
[6]
  T/C: 98 % of control

## COC(=O)C(CSCc1ccccc1)NC(=O)C(CSCc1ccccc1)NC(=O)CCNC(=O)OCc1ccccc1 (stereo not given) ({Cbz-βAla}-Cys(Bn)-Cys(Bn)-OMe; configuration not given here)
[12]
  T/C: 102 % of control
[5]
  T/C: 100 % of control
[2]
  T/C: 95 % of control
[3]
  T/C: 93 % of control
[4]
  T/C: 93 % of control

## C/C(=C\C1C/C(=C/CCc2ccoc2)C(=O)O1)CCCc1ccoc1 (stereo not given)
dose: 5.0 mg/kg/injection, schedule: Q01DX009 (ip), vehicle: other
  T/C: 107 % of control
dose: 20.0 mg/kg/injection, schedule: Q01DX009 (ip), vehicle: other
  T/C: 106 % of control

## CCOc1ccn(CC(=O)Nc2nccs2)c(=O)n1
dose: 12.5 mg/kg/injection, schedule: Q01DX009 (ip), vehicle: saline
  T/C: 104 % of control
[17]
  T/C: 95 % of control
[9]
  T/C: 104 % of control
dose: 50.0 mg/kg/injection, schedule: Q04DX003 (ip), vehicle: saline
  T/C: 114 % of control
[18]
  T/C: 104 % of control
dose: 200.0 mg/kg/injection, schedule: Q01DX009 (ip), vehicle: saline
  T/C: 100 % of control
[11]
  T/C: 106 % of control
dose: 400.0 mg/kg/injection, schedule: Q01DX009 (ip), vehicle: saline
  T/C: 94 % of control
[16]
  T/C: 97 % of control

## O=C(O)CSC(=S)c1ccccc1
[19]
  T/C: 118 % of control
[7]
  T/C: 121 % of control
